The test system of the experiment is AM2.2 cells FAP-GPR32, fluorogen binding, flow cytometry MCF. The experiment is described as follows: fluorogen binding to FAP-tagged GPR32, dose response, counter-screen for beta2AR agonist internalization project, AM2.2 cells, flow cytometry, powder set 2 (AID 651729).
With `CC(=O)Nc1ccc(S(=O)(=O)NCCc2csc(-c3cccnc3)n2)cc1`, the half-maximal effective concentration (EC50) (in general, the concentration giving half of the maximal effect) was 11 nM.
Turning to `CN(CC(=O)N1CCN(c2ccccn2)CC1)S(=O)(=O)c1ccc(Cl)cc1`, the EC50 is 5.23 nM.
`CCOC(=O)c1ccc(NC(=O)Cn2nnc(-c3ccccc3)n2)cc1`: the concentration giving a half-maximal response (EC50) is 134 nM.
Consider `CCOC(=O)c1ccc(NC(=O)COc2ccc(S(=O)(=O)N3CCCC3)cc2)cc1`, for which the EC50 was 124 nM.

Source of the values: PubChem BioAssay AID651729 (NMMLSC, 2012).
